Measured values: PubChem BioAssay (NCI)
Values joined by “and” are separate entries in the source; they are usually repeats but may differ in a detail not shown here. Equal entries are not always repeated.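 A five-concentration, 48-hour dose response in 96-well plates underlies each endpoint, interpolated linearly between surrounding concentrations. GI50: concentration for 50% inhibition of growth. TGI: total growth inhibition.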

What was measured:
Test in all cases: NCI-60 cell line screen, 48 h
[1] = system: 786-0 renal
[2] = system: CCRF-CEM leukemia
[3] = system: RXF 393 renal
[4] = system: SF-295 CNS
[5] = system: SK-MEL-5 melanoma
[6] = system: SK-OV-3 ovarian
[7] = system: SW-620 colon
[8] = system: UACC-257 melanoma
[9] = system: SK-MEL-2 melanoma
[10] = system: MDA-MB-435

C/C(=N\NC(=S)N1CCC(C2CCN(C(=S)N/N=C(\C)c3ccccn3)CC2)CC1)c1ccccn1
TGI [1]: > 100 µM | TGI [2]: > 100 µM | TGI [3]: > 100 µM | TGI [4]: > 100 µM | TGI [5]: > 100 µM | TGI [6]: > 100 µM | TGI [7]: > 100 µM | TGI [8]: > 100 µM

Clc1ccccc1C1=NN(c2ccccc2)C2c3cc(Br)ccc3OCC12 (stereo unspecified)
TGI [1]: > 100 µM | TGI [2]: > 100 µM | TGI [3]: > 100 µM | TGI [4]: > 100 µM | TGI [9]: > 100 µM | TGI [6]: > 100 µM | TGI [7]: > 100 µM | TGI [8]: > 100 µM

C[C@H](NC(=O)CCC(F)(F)F)C(=O)N[C@@H]1C(=O)N(CCO)c2ncccc2-c2ccccc21
GI50 [1]: > 100 µM | TGI [1]: > 100 µM | GI50 [2]: > 100 µM | TGI [2]: > 100 µM | GI50 [10]: > 100 µM | TGI [10]: > 100 µM | GI50 [3]: > 100 µM | TGI [3]: > 100 µM | GI50 [4]: > 100 µM | TGI [4]: > 100 µM | GI50 [9]: > 100 µM | TGI [9]: > 100 µM | GI50 [5]: > 100 µM | TGI [5]: > 100 µM | GI50 [6]: > 100 µM | TGI [6]: > 100 µM | GI50 [7]: > 100 µM | TGI [7]: > 100 µM

CCCCCCCCC(=O)NCCCNCCCNC(=O)CCCCCCCC
TGI [1]: 3.52 µM | TGI [2]: 14.9 µM | TGI [3]: 21.7 µM | TGI [4]: 14.2 µM | TGI [9]: 9.05 µM | TGI [5]: 14.1 µM | TGI [6]: 29.2 µM | TGI [7]: 7.3 µM | TGI [8]: 19.9 µM

O=C1/C(=C/c2ccccc2)CN(C(=O)Oc2ccc([N+](=O)[O-])cc2)C/C1=C\c1ccccc1
GI50 [1]: 1.74 µM | TGI [1]: 3.55 µM | GI50 [2]: 1.72 µM | TGI [2]: 6.5 µM and 8.22 µM | GI50 [3]: 1.59 µM | TGI [3]: 4.51 µM | GI50 [4]: 2.07 µM | TGI [4]: 7.93 µM and 4.98 µM | TGI [9]: 29.2 µM | GI50 [5]: 4.12 µM | TGI [5]: 5.38 µM | GI50 [7]: 1.27 µM | TGI [7]: 2.47 µM | GI50 [8]: 6.29 µM | TGI [8]: 8.79 µM

CCOC(=O)Cc1csc(NC(=O)C(OC(=O)c2ccc(N)cc2)c2ccccc2)n1 (stereo unspecified)
GI50 [1]: 48.6 µM | TGI [1]: > 100 µM | GI50 [10]: 31.1 µM | TGI [10]: > 100 µM | GI50 [3]: 66.4 µM | TGI [3]: > 100 µM | GI50 [4]: 42.2 µM | TGI [4]: > 100 µM | GI50 [9]: 40.2 µM | TGI [9]: > 100 µM | GI50 [5]: 18.9 µM | TGI [5]: 39.1 µM | GI50 [6]: 46.7 µM | TGI [6]: > 100 µM | GI50 [7]: 49.5 µM | TGI [7]: > 100 µM | GI50 [8]: 40.5 µM | TGI [8]: > 100 µM

O=C1c2cccc3cccc(c23)C(=O)N1CCCN1CCN(CCCN2C(=O)c3cccc4cccc(c34)C2=O)CC1
TGI [1]: > 100 µM | TGI [2]: > 100 µM | TGI [3]: > 100 µM | TGI [4]: > 100 µM | TGI [9]: > 100 µM | TGI [5]: > 100 µM | TGI [6]: > 100 µM | TGI [7]: > 100 µM | TGI [8]: > 100 µM

Cc1c(-c2coc(-c3ccc(Cl)cc3)n2)c(=O)n(-c2ccccc2)n1C
TGI [1]: > 100 µM | TGI [2]: > 100 µM | TGI [4]: > 100 µM | TGI [9]: > 100 µM | TGI [5]: > 100 µM | TGI [6]: > 100 µM | TGI [8]: > 100 µM

COc1ccccc1NC(=O)C(=O)C1C(=O)Nc2ccccc2S1=O (stereo unspecified)
TGI [1]: > 100 µM | TGI [2]: > 100 µM | TGI [3]: > 100 µM | TGI [4]: > 100 µM | TGI [9]: > 100 µM | TGI [5]: > 100 µM | TGI [6]: > 100 µM | TGI [7]: > 100 µM | TGI [8]: > 100 µM
